From US10618918B2, “Substituted boronic acids as antimicrobials” (priority 2015, dated 2020)
Like-named read-outs stand apart in the source and are kept apart here.

What was measured:
KP1010 SHV-12 = assay: Aztreonam potentiation (MPC@4), strain KP1010 SHV-12; conditions: minimum BLI concentration inhibiting growth with aztreonam 4 μg/mL; tested up to 40 μg/mL
EC1010 CMY-6 = assay: Aztreonam potentiation (MPC@4), strain EC1010 CMY-6; conditions: minimum BLI concentration inhibiting growth with aztreonam 4 μg/mL; tested up to 40 μg/mL
KP1009 CTX-M-15 = assay: Aztreonam potentiation (MPC@4), strain KP1009 CTX-M-15; conditions: minimum BLI concentration inhibiting growth with aztreonam 4 μg/mL; tested up to 40 μg/mL
KP1004 KPC-2 [1] = assay: Biapenem potentiation (MPC@1), strain KP1004 KPC-2; type: cell-based; conditions: minimum BLI concentration inhibiting growth with biapenem 1 μg/mL; tested up to 40 μg/mL
Procedure: (§1) Biapenem was present in the test medium at 1 μg/mL. […] Table 3 summarizes the BLI potency of biapenem potentiation (MPC@1) for two strains overexpressing class A (KPC) and class D (OXA-48) carbapenemases. Biapenem MIC for each strain is also shown.

KP1005 CTX-M-14 = assay: Tigemonam potentiation (MPC@4), strain KP1005 CTX-M-14; conditions: minimum BLI concentration inhibiting growth with tigemonam 4 μg/mL; tested up to 40 μg/mL
KP1004 KPC-2 [2] = assay: Aztreonam potentiation (MPC@4), strain KP1004 KPC-2; conditions: minimum BLI concentration inhibiting growth with aztreonam 4 μg/mL; tested up to 40 μg/mL
KP1086 OXA-48 = assay: Biapenem potentiation (MPC@1), strain KP1086 OXA-48; type: cell-based; conditions: minimum BLI concentration inhibiting growth with biapenem 1 μg/mL; tested up to 40 μg/mL
Procedure: as §1

AB1053 OXA-72 = assay: Meropenem potentiation (MPC@8), strain AB1053 OXA-72; type: cell-based, Acinetobacter baumannii; conditions: minimum BLI concentration inhibiting growth with meropenem 8 μg/mL; tested up to 20 μg/mL
AB1054 OXA-23 = assay: Meropenem potentiation (MPC@8), strain AB1054 OXA-23; type: cell-based, Acinetobacter baumannii; conditions: minimum BLI concentration inhibiting growth with meropenem 8 μg/mL; tested up to 20 μg/mL
ec302 TEM-10 = assay: Aztreonam potentiation (MPC@4), strain ec302 TEM-10; conditions: minimum BLI concentration inhibiting growth with aztreonam 4 μg/mL; tested up to 40 μg/mL
[3] = biological target: purified class A, C and D enzymes (β-lactamases) (Enterobacter cloacae, UniProt P05364); assay: biochemical; type: biochemical
purified class A, C and D enzymes (β-lactamases) (Enterobacter cloacae, UniProt P05364), sequence (P05364 21-381): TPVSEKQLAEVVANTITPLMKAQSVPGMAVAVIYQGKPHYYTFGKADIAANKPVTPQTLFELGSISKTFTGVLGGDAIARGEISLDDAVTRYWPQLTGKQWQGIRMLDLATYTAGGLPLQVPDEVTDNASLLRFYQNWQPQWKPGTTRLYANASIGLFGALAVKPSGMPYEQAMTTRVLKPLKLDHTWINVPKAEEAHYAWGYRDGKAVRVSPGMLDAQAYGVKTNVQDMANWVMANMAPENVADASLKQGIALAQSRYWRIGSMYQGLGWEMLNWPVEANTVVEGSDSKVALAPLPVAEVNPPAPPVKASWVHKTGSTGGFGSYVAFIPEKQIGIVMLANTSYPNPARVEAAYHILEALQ

[4] = biological target: T1, purified class A, C and D enzymes (β-lactamases) (Acinetobacter baumannii, UniProt Q9L4P2); assay: biochemical; type: biochemical; conditions: purified OXA-23; nitrocefin (NCF) as reporter substrate
T1 construct: rows headed: Ki (OXA-23, NCF), uM; other: purified OXA-23; nitrocefin (NCF) as reporter substrate
T1 sequence (Q9L4P2 whole entry): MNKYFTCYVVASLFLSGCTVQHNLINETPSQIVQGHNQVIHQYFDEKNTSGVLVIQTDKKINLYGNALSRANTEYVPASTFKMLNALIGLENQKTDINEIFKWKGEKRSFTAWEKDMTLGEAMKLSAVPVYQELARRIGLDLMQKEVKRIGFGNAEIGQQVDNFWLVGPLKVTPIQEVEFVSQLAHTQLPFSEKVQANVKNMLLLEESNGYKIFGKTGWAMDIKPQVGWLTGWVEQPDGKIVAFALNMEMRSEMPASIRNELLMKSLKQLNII

[5] = biological target: purified class A, C and D enzymes (β-lactamases) (Klebsiella pneumoniae, UniProt Q9F663); assay: biochemical; type: biochemical
[6] = biological target: purified class A, C and D enzymes (β-lactamases) (Escherichia coli, UniProt Q9L5C7); assay: biochemical; type: biochemical
purified class A, C and D enzymes (β-lactamases) (Escherichia coli, UniProt Q9L5C7), sequence (Q9L5C7 entry or part of it): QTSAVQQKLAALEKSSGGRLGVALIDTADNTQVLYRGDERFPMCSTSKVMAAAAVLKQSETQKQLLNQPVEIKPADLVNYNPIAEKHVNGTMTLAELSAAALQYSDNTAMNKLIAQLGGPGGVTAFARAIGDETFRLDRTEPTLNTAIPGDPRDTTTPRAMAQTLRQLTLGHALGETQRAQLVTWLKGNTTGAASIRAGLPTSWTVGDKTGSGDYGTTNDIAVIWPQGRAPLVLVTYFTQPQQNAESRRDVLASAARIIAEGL

[7] = biological target: purified class A, C and D enzymes (β-lactamases) (Klebsiella pneumoniae, UniProt Q6XEC0); assay: biochemical; type: biochemical
[8] = biological target: T2, purified class A, C and D enzymes (β-lactamases) (Pseudomonas aeruginosa, UniProt P24735); assay: biochemical; type: biochemical
T2 construct: rows headed: Ki (Pa-AmpC, NCF), uM; other: purified Pa-AmpC; nitrocefin (NCF) as reporter substrate
T2 sequence (P24735 whole entry): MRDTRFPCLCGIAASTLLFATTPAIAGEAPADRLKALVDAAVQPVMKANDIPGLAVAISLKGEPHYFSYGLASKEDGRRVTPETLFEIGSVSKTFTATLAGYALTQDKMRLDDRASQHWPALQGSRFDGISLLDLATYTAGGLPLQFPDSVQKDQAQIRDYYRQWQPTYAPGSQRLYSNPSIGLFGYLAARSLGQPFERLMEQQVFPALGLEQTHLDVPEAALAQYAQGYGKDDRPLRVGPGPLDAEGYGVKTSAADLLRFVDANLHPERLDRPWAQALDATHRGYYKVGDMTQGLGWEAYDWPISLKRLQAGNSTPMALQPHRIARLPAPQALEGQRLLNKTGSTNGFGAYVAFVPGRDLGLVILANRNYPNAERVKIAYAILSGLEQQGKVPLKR

ECL1002 = assay: Aztreonam potentiation (MPC@4), strain ECL1002; conditions: minimum BLI concentration inhibiting growth with aztreonam 4 μg/mL; tested up to 40 μg/mL
ec308 SHV-5 = assay: Aztreonam potentiation (MPC@4), strain ec308 SHV-5; conditions: minimum BLI concentration inhibiting growth with aztreonam 4 μg/mL; tested up to 40 μg/mL
[9] = purified KPC-2, nitrocefin (NCF) as reporter substrate
[10] = purified OXA-48, nitrocefin (NCF) as reporter substrate
[11] = purified P99, nitrocefin (NCF) as reporter substrate
[12] = purified Pa-AmpC, nitrocefin (NCF) as reporter substrate, read-out: Ki (Pa-AmpC, NCF)

Row | SMILES | AZT MPC4 SHV-12 KP1010 (KP1010 SHV-12) | AZT MPC4 CMY-6 EC1010 (EC1010 CMY-6) | AZT MPC4 CTX-M-15 KP1009 (KP1009 CTX-M-15) | BPM MPC1 KP1004 KPC-2 (KP1004 KPC-2 [1]) | TIG MPC4 CTX-M-14 KP1005 (KP1005 CTX-M-14) | AZT MPC4 KPC-2 KP1004 (KP1004 KPC-2 [2]) | BPM MPC1 OXA-48 KP1086 (KP1086 OXA-48) | MPM MPC8 AB1053 OXA-72 (AB1053 OXA-72) | MPM MPC8 AB1054 OXA-23 (AB1054 OXA-23) | AZT MPC4 TEM-10 ec302 (ec302 TEM-10) | Ki (P99, NCF), uM [3] | Ki [4] [µM] | Ki (KPC-2, NCF), uM [5, 9] | Ki (OXA-48, NCF), uM [7, 10] | Ki [8] [µM] | AZT MPC4 ECL1002 (ECL1002) | AZT MPC4 SHV-5 ec308 (ec308 SHV-5) | other results
1 | NCCCSCc1ccc2c(c1C(=O)[O-])O[B-](O)(O)CC2.[Na+].[Na+] [Compound 21, Disodium; 8-(3-aminopropylsulfanylmethyl)-4,4-dihydroxy-5-oxa-4-boranuidabicyclo[4.4.0]deca-1(6),7,9-triene-7-carboxylate] | X (X = MPC@4 ≤ 5 μg/mL) | X (X = MPC@4 ≤ 5 μg/mL) | Y (Y = 5 μg/mL < MPC@4 ≤ 20 μg/mL) | X (X = MPC@1 ≤ 5 μg/mL) | Z (Z = MPC@4 > 20 μg/mL) | X (X = MPC@4 ≤ 5 μg/mL) | X (X = MPC@1 ≤ 5 μg/mL) | X (X = MPC@1 ≤ 5 μg/mL) | X (X = MPC@1 ≤ 5 μg/mL) | Y (Y = 5 μg/mL < MPC@4 ≤ 20 μg/mL) | X (key: X = Ki ≤ 0.1 μM; Y = 0.1 μM < Ki ≤ 1 μM; Z = Ki > 1 μM) | < 0.1 | X (X = Ki ≤ 0.1 μM) | X (X = Ki ≤ 0.1 μM) | < 0.1 | Y (Y = 5 μg/mL < MPC@4 ≤ 20 μg/mL) | Y (Y = 5 μg/mL < MPC@4 ≤ 20 μg/mL) | Ki (CTX-M-14, NCF), uM ([6]; purified CTX-M-14, nitrocefin (NCF) as reporter substrate): X (X = Ki ≤ 0.1 μM)
2 | O=C(O)[C@H]1/C(=C/CO)O[C@@H]2CC(=O)N21 [Clavulanic Acid, reference compound] | X (X = MPC@4 ≤ 5 μg/mL) | Z (Z = MPC@4 > 20 μg/mL) | X (X = MPC@4 ≤ 5 μg/mL) | Y (Y = 5 μg/mL < MPC@1 ≤ 20 μg/mL) | X (X = MPC@4 ≤ 5 μg/mL) | Z (Z = MPC@4 > 20 μg/mL) | Z (Z = MPC@1 > 20 μg/mL) | – | – | X (X = MPC@4 ≤ 5 μg/mL) | – | – | – | – | – | Z (Z = MPC@4 > 20 μg/mL) | X (X = MPC@4 ≤ 5 μg/mL) | Ki (KPC-2, NCF), uM [5]: Z (key: X = Ki ≤ 0.1 μM; Y = 0.1 μM < Ki ≤ 1 μM; Z = Ki > 1 μM); Ki (CTX-M-14, NCF), uM [6]: X (key: X = Ki ≤ 0.1 μM; Y = 0.1 μM < Ki ≤ 1 μM; Z = Ki > 1 μM); Ki (OXA-48, NCF), uM [7]: Z (key: X = Ki ≤ 0.1 μM; Y = 0.1 μM < Ki ≤ 1 μM; Z = Ki > 1 μM)
3 | O=C(O)c1c(OCC2OCCO2)ccc2c1OB(O)CC2 [Compound 26, 7-(1,3-Dioxolan-2-ylmethoxy)-2-hydroxy-3,4-dihydro-1,2-benzoxaborinine-8-carboxylic acid] | X (X = MPC@4 ≤ 5 μg/mL) | X (X = MPC@4 ≤ 5 μg/mL) | Y (Y = 5 μg/mL < MPC@4 ≤ 20 μg/mL) | X (X = MPC@1 ≤ 5 μg/mL) | Z (Z = MPC@4 > 20 μg/mL) | X (X = MPC@4 ≤ 5 μg/mL) | X (X = MPC@1 ≤ 5 μg/mL) | X (X = MPC@1 ≤ 5 μg/mL) | Y (Y = 5 μg/mL < MPC@1 ≤ 20 μg/mL) | Y (Y = 5 μg/mL < MPC@4 ≤ 20 μg/mL) | – | < 0.1 | X (X = Ki ≤ 0.1 μM) | X (X = Ki ≤ 0.1 μM) | – | X (X = MPC@4 ≤ 5 μg/mL) | Y (Y = 5 μg/mL < MPC@4 ≤ 20 μg/mL) | Ki (P99, NCF), uM [3, 11]: X (X = Ki ≤ 0.1 μM); Ki [8, 12]: < 0.1 µM
4 | O=C(O)c1c(OC(CO)CO)ccc2c1OB(O)CC2 [Compound 44, 2-hydroxy-7-[2-hydroxy-1-(hydroxymethyl)ethoxy]-3,4-dihydro-1,2-benzoxaborinine-8-carboxylic acid] | X (X = MPC@4 ≤ 5 μg/mL) | X (X = MPC@4 ≤ 5 μg/mL) | Y (Y = 5 μg/mL < MPC@4 ≤ 20 μg/mL) | X (X = MPC@1 ≤ 5 μg/mL) | Z (Z = MPC@4 > 20 μg/mL) | X (X = MPC@4 ≤ 5 μg/mL) | X (X = MPC@1 ≤ 5 μg/mL) | X (X = MPC@1 ≤ 5 μg/mL) | Y (Y = 5 μg/mL < MPC@1 ≤ 20 μg/mL) | Y (Y = 5 μg/mL < MPC@4 ≤ 20 μg/mL) | – | < 0.1 | X (X = Ki ≤ 0.1 μM) | X (X = Ki ≤ 0.1 μM) | – | Y (Y = 5 μg/mL < MPC@4 ≤ 20 μg/mL) | Y (Y = 5 μg/mL < MPC@4 ≤ 20 μg/mL) | Ki (P99, NCF), uM [3, 11]: X (X = Ki ≤ 0.1 μM); Ki [8, 12]: < 0.1 µM
5 | NCC#CCOc1ccc2c(c1C(=O)[O-])O[B-](O)(O)CC2.[Na+].[Na+] [Compound 32, Disodium; 8-(4-aminobut-2-ynoxy)-4,4-dihydroxy-5-oxa-4-boranuidabicyclo[4.4.0]deca-1(6),7,9-triene-7-carboxylate] | X (X = MPC@4 ≤ 5 μg/mL) | X (X = MPC@4 ≤ 5 μg/mL) | X (X = MPC@4 ≤ 5 μg/mL) | X (X = MPC@1 ≤ 5 μg/mL) | Y (Y = 5 μg/mL < MPC@4 ≤ 20 μg/mL) | X (X = MPC@4 ≤ 5 μg/mL) | X (X = MPC@1 ≤ 5 μg/mL) | X (X = MPC@1 ≤ 5 μg/mL) | X (X = MPC@1 ≤ 5 μg/mL) | X (X = MPC@4 ≤ 5 μg/mL) | X (key: X = Ki ≤ 0.1 μM; Y = 0.1 μM < Ki ≤ 1 μM; Z = Ki > 1 μM) | < 0.1 | X (X = Ki ≤ 0.1 μM) | X (X = Ki ≤ 0.1 μM) | < 0.1 | X (X = MPC@4 ≤ 5 μg/mL) | Y (Y = 5 μg/mL < MPC@4 ≤ 20 μg/mL) | –
6 | O=C([O-])c1cc(F)cc2c1O[B-](O)(O)CC2.[Na+].[Na+] [Compound 37, Disodium; 9-fluoro-4,4-dihydroxy-5-oxa-4-boranuidabicyclo[4.4.0]deca-1(6),7,9-triene-7-carboxylate] | X (X = MPC@4 ≤ 5 μg/mL) | X (X = MPC@4 ≤ 5 μg/mL) | Y (Y = 5 μg/mL < MPC@4 ≤ 20 μg/mL) | X (X = MPC@1 ≤ 5 μg/mL) | Z (Z = MPC@4 > 20 μg/mL) | X (X = MPC@4 ≤ 5 μg/mL) | X (X = MPC@1 ≤ 5 μg/mL) | Z (Z = MPC@1 > 20 μg/mL) | Z (Z = MPC@1 > 20 μg/mL) | Y (Y = 5 μg/mL < MPC@4 ≤ 20 μg/mL) | X (key: X = Ki ≤ 0.1 μM; Y = 0.1 μM < Ki ≤ 1 μM; Z = Ki > 1 μM) | < 0.1 | X (X = Ki ≤ 0.1 μM) | X (X = Ki ≤ 0.1 μM) | < 0.1 | Y (Y = 5 μg/mL < MPC@4 ≤ 20 μg/mL) | Y (Y = 5 μg/mL < MPC@4 ≤ 20 μg/mL) | –
7 | N#Cc1ccc2c(c1C(=O)[O-])O[B-](O)(O)CC2.[Na+].[Na+] [Compound 54, Disodium; 8-cyano-4,4-dihydroxy-5-oxa-4-boranuidabicyclo[4.4.0]deca-1(6),7,9-triene-7-carboxylate] | Z (Z = MPC@4 > 20 μg/mL) | Y (Y = 5 μg/mL < MPC@4 ≤ 20 μg/mL) | Z (Z = MPC@4 > 20 μg/mL) | X (X = MPC@1 ≤ 5 μg/mL) | Z (Z = MPC@4 > 20 μg/mL) | Z (Z = MPC@4 > 20 μg/mL) | Z (Z = MPC@1 > 20 μg/mL) | Z (Z = MPC@1 > 20 μg/mL) | Z (Z = MPC@1 > 20 μg/mL) | Z (Z = MPC@4 > 20 μg/mL) | Y (key: X = Ki ≤ 0.1 μM; Y = 0.1 μM < Ki ≤ 1 μM; Z = Ki > 1 μM) | 0.1 to 1 | Z (Z = Ki > 1 μM) | X (X = Ki ≤ 0.1 μM) | > 1 | Z (Z = MPC@4 > 20 μg/mL) | Z (Z = MPC@4 > 20 μg/mL) | –
